# Patent publication US20030060445A1, “Nutritional formulation containing prebiotic substances” (priority 2000, published 2003)
# How the values were obtained:
# Type in all cases: cell-based
# Bacteroides [1] = test: Media pH of Bacteroides batch culture (Example 3); conditions: PYG batch culture, 37° C., anaerobic; pH monitored at various time points; FIG. 3
# Description: (§1) Identical inoculua (A600∇1.0) of overnight cultures (PYG broth, 37° C., anaerobic) of each organism was grown in batch culture (37° C., anaerobic) with constant stirring. Carbohydrate-deficient batch culture media (PYG) was supplemented as above. The media pH were monitored at various time points.
# Clostridia [2] = test: Media pH of Clostridia batch culture (Example 3); conditions: PYG batch culture, 37° C., anaerobic; pH monitored at various time points; FIG. 3
# Description: as §1
# B. lactis = test: Media pH of Bifidobacteria batch culture (Example 3); conditions: PYG batch culture, 37° C., anaerobic; pH monitored at various time points; FIG. 3
# Description: as §1
# Bacteroides [3] = test: Batch culture growth of Bacteroides, titers on selective agar (Example 1); conditions: carbohydrate-deficient PYG batch culture, 37° C., anaerobic; supplement in place of glucose 3.0 g/L; FIG. 1
# Description: (§2) Identical inoculua (A600∇1.0) of overnight cultures (PYG broth, 37° C., anaerobic) of each organism (Clostridia, Bacteroides, or B. lactis) were grown in batch culture (37° C., anaerobic) with constant stirring. Carbohydrate-deficient batch culture media (PYG) was supplemented with either glucose (3.0 g/L), oligofructose (FOS at 3.0 g/L), sialyllactose (3′- or 6′-sialyllactose at […]), or oligofructose plus sialyllactose (3.0 g/l and 100 mg/L, respectively). Growth was monitored at various time points (see FIG. 1) by determining the titers of the bacteria on selective agar (BIM-25 agar for Bifidobacteria and Wilkens-Chalgren agar for Clostridia and Bacteroides).
# Clostridia [4] = test: Batch culture growth of Clostridia, titers on selective agar (Example 1); conditions: carbohydrate-deficient PYG batch culture, 37° C., anaerobic; supplement in place of glucose 3.0 g/L; FIG. 1
# Description: as §2
molecule,measurement,setting,value
sialyllactose,"media pH change, Bacteroides culture",Bacteroides [1],the pH increased
same,"media pH change, Clostridia culture",Clostridia [2],the pH increased
same,"media pH change, Bifidobacteria (B. lactis / B. infantis) culture",B. lactis,the pH increased
CC(=O)N[C@H]1[C@H]([C@H](O)[C@H](O)CO)O[C@@](O[C@H]2[C@@H](O)[C@@H](CO)O[C@@H](O[C@H]3[C@H](O)[C@@H](O)C(O)O[C@@H]3CO)[C@@H]2O)(C(=O)O)C[C@@H]1O (some centres unmarked) [3′-sialyllactose],growth of Bacteroides,Bacteroides [3],essentially no growth
same,growth of Clostridia,Clostridia [4],essentially no growth
